Assay results from US12409184B2, “Iloprost compositions and formulations thereof” (BTG INTERNATIONAL INC., priority 2020, dated 2025).

Key:
[1] = Example 1 PK sub-study, plasma iloprost by LC-MS; format: in vivo, human; settings: for CLss, Mean (SD): n 1
Description: Eligible subjects were given the option to participate in a PK sub-study. Subjects who participated in the sub-study provided plasma samples for PK analysis. The samples were analyzed for iloprost concentrations using validated liquid chromatography mass spectrometry methods.
The following PK parameters were calculated whenever possible, based on the plasma concentrations of iloprost: • Steady state plasma concentration just before infusion was stopped • Area under the plasma concentration versus time curve (AUC) from time of dosing to the last time point with measurable concentration (AUC0-last) • AUC from time 0 extrapolated to infinity (AUC0-inf) • Percentage of AUC obtained by extrapolation (AUCextrape %) • Terminal elimination constant (λz) • Plasma terminal elimination half-life (t½) • Plasma clearance (CL), calculated as dose/AUC0-inf • Volume of distribution (V), calculated as dose/(λz×AUC0-inf) Safety

[2] = Example 1 safety and tolerability (adverse events, vital signs, ECG, laboratory); format: in vivo, human
Description: On Day 1, study drug was initiated at a starting dose of 0.5 ng/kg/min, and dose increases occurred every 30 minutes (+5 minutes) in increments of 0.5 ng/kg/min up to 2.0 ng/kg/min or the individual tolerated dose. If dose-limiting adverse events (e.g., headache, flushing, jaw pain, myalgia, nausea, or vomiting) occurred that could not be tolerated by the subject, or if the subject experienced symptomatic hypotension, then the dose was reduced in a step-wise manner by 0.5 ng/kg/min every 30 minutes (+5 minutes) until a tolerated dose was determined or the infusion was stopped until the symptoms resolved at which point the study drug was reinitiated at a previously tolerated dose. If symptomatic hypotension or a dose-limiting adverse event occurred during administration of iloprost at the starting dose (i.e., 0.5 ng/kg/min), the infusion was reduced to 0.25 ng/kg/min. If the dose of 0.25 ng/kg/min was not tolerated due to symptomatic hypotension or if a dose-limiting adverse event occurred, the study drug was discontinued, and re-initiation of the infusion could have been attempted after the event had resolved or had been treated. Blood pressure and heart rate were monitored 15 minutes (+5 minutes) prior to and after all dose changes. The maximum tolerated dose was maintained for the remaining 6-hour daily period. At the end of the 6-hour infusion period, the dose was stopped. Subjects were to be monitored for up to 1 hour after completion of study drug infusion (i.e., vital signs were obtained 15 minutes [±5 minutes] and 1 hour [±15 minutes] after completion of the infusion).
Vital signs were measured prior to study drug administration and at 15 minutes (±5 minutes) prior to and after all dose changes during the infusion. Additionally, vital signs were monitored at 15 minutes (±5 minutes) and 1 hour (±15 minutes) after completion of the 6-hour infusion.
Safety parameters included adverse events, physical examination findings, vital sign measurements (heart rate and blood pressure), 12-lead electrocardiogram (ECG) findings, and standard clinical laboratory measurements (chemistry and hematology).

SMILES: CC#CCC(C)[C@H](O)/C=C/[C@@H]1[C@H]2C/C(=C/CCCC(=O)O)C[C@H]2C[C@H]1O (stereo partly drawn) [Iloprost, (5E)-5-[(3aS,4R,5R,6aS)-5-hydroxy-4-[(E,3S)-3-hydroxy-4-methyloct-1-en-6-ynyl]-3,3a,4,5,6,6a-hexahydro-1H-pentalen-2-ylidene]pentanoic acid]
- CLss, Mean (SD) ([1]; Maximum Tolerated Dose Level 1.00 ng/kg/min): 91.22 (NA) L/h
- CLss, Mean (SD) ([1]; Maximum Tolerated Dose Level 1.50 ng/kg/min): 6.01 (NA) L/h
- Css, Geometric mean (geometric CV %) ([1]; Maximum Tolerated Dose Level 1.50 ng/kg/min, n 2): 32.90 (284.8) pg/mL
- CLss, Mean (SD) ([1]; Maximum Tolerated Dose Level 2.00 ng/kg/min): 64.53 (NA) L/h
- TEAE abdominal pain ([2]; human, in vivo, 5 days): 4 [23.5%] subjects (%)
- TEAE flushing ([2]; human, in vivo, 5 days): 5 [29.4%] subjects (%)
- TEAE headache ([2]; human, in vivo, 5 days): 16 [94.1%] subjects (%)
- TEAE nausea ([2]; human, in vivo, 5 days): 11 [64.7%] subjects (%)
- subjects who experienced TEAEs considered severe by the Investigator ([2]; human, in vivo, 5 days): Two (11.8%) subjects (%)
- subjects who experienced a TEAE ([2]; human, in vivo, 5 days): 17 (100.0%) subjects (%)
- TEAEs related to vital signs, physical examination findings, or ECGs ([2]; in vivo): no TEAEs
- bradycardia or tachycardia ([2]; in vivo): no bradycardia or tachycardia
- changes in chemistry or hematology laboratory values ([2]; in vivo): no clinically significant changes
- hypertensive or hypotensive events ([2]; in vivo): no hypertensive or hypotensive events
- deaths, SAEs, AESIs, TEAEs leading to study drug discontinuation ([2]; whole study): no deaths, SAEs, AESIs, or TEAEs leading to study drug discontinuation
